Measurements from US6521456B1, “Cellular transport system for the transfer of a nucleic acid through the nuclear envelope and methods thereof” (priority 1999, dated 2003).

Test system: promoter of the ampicillin resistance gene (expression vector DNA)
Assay: Binding of PNA-peptide-hybrids to double stranded vector DNA (inhibition of Earl cleavage at the PNA binding site)
Settings: 25 μM PNA-peptide-hybrid, 100 ng vector
Description: 100 ng expression vector were incubated in TE (pH 7,8) with 25 μM of different PNA-peptide-hybrids at either 65° C. or 37° C. for five minutes to three hours. The PNA-sequence NH2-CTCTTCCTTTTTC-COOH (SEQ ID NO: 6) used here, binds to the promoter of the ampicillin resistance gene.
At the C-terminus either a peptide of 21 amino acids (Peptide 1) or 27 amino acids (Peptide 2) or a spacer of 10 AEEA-units (Fmoc-AEEA-OH Spacer, PerSeptive Biosystems Inc., Framingham, USA) followed by 27 amino acids (Peptide 3) is located. The binding assays were subsequently incubated with restriction endonuclease Earl. Restricted DNA was stained with YOYO (Molecular Probes, Inc., Eugene, Oreg., USA) separated on an agarose gel and quantified with a fluorescence scanner (Image Plate Reader FLA 2000, analysis software L-Process, version 1.6, Fuji Photo Film Co., Ltd., Tokio). Cleavage of DNA by restriction endonuclease Earl is inhibited at the PNA binding site. Additional Earl restriction sites serve as internal control of the reaction.

H-GKPSSDDEATADSQHSTPPKKKRKVED-OH [Peptide 2]
Portion of peptide-labelled DNA shown as percentage of input DNA (37 °C, 60 min): 90%
Portion of peptide-labelled DNA shown as percentage of input DNA (37 °C, 120 min): 91%
Portion of peptide-labelled DNA shown as percentage of input DNA (37 °C, 180 min): 94%
Portion of peptide-labelled DNA shown as percentage of input DNA (65 °C, 5 min): 96%
Portion of peptide-labelled DNA shown as percentage of input DNA (65 °C, 10 min): 97%
Portion of peptide-labelled DNA shown as percentage of input DNA (65 °C, 15 min): 97%

H-GKPTADDQHSTPPKKKRKVED-OH [Peptide 1]
Portion of peptide-labelled DNA shown as percentage of input DNA (37 °C, 60 min): 85%
Portion of peptide-labelled DNA shown as percentage of input DNA (37 °C, 120 min): 91%
Portion of peptide-labelled DNA shown as percentage of input DNA (37 °C, 180 min): 94%
Portion of peptide-labelled DNA shown as percentage of input DNA (65 °C, 5 min): 94%
Portion of peptide-labelled DNA shown as percentage of input DNA (65 °C, 10 min): 96%
Portion of peptide-labelled DNA shown as percentage of input DNA (65 °C, 15 min): 96%

NH2-(AEEA)10-GKPSSDDEATADSQHSTPPKKKRKVED-COOH [Peptide 3]
Portion of peptide-labelled DNA shown as percentage of input DNA (37 °C, 60 min): 74%
Portion of peptide-labelled DNA shown as percentage of input DNA (37 °C, 120 min): 76%
Portion of peptide-labelled DNA shown as percentage of input DNA (37 °C, 180 min): 90%
Portion of peptide-labelled DNA shown as percentage of input DNA (65 °C, 5 min): 91%
Portion of peptide-labelled DNA shown as percentage of input DNA (65 °C, 10 min): 95%
Portion of peptide-labelled DNA shown as percentage of input DNA (65 °C, 15 min): 95%
